Results from article PMC8655237 (Journal of Advanced Research, 2021).
Each block holds one compound with its values, some of them ahead of it. Where a SMILES comes first, the peptide text is derived from it. [ ]: non-standard residue; d: D form. The star is where a group is joined. Sta = CC(C)C[C@H](N)[C@@H](O)CC(=O)O; Isovaleryl = CC(C)CC(=O)*

Legend:
[1] = tested on: HYAL mRNA; experiment: Real-time qPCR expression analysis; format: cell-based, human; details: GAPDH internal control
[2] = tested on: hyaluronidase (HYAL); experiment: Hyaluronidase assay, cell-free; format: biochemical; details: read-out: IC50 HYAL; cell free (In vitro)
[3] = tested on: hyaluronidase (HYAL); experiment: Hyaluronidase assay, cell-based; set-up: species or system human
[4] = tested on: MDA-MB-231; experiment: SRB antiproliferative assay; format: cell-based; details: Homo sapiens, MDA-MB-231, 24 h, read-out: IC50 (SRB)
[5] = tested on: PC-3; experiment: MTT antiproliferative assay; format: cell-based; details: Homo sapiens, PC-3, 24 h, read-out: IC50 (MTT)
[6] = tested on: A431; experiment: MTT antiproliferative assay; format: cell-based; details: Homo sapiens, A-431, 24 h, read-out: IC50 (MTT)
[7] = tested on: A431 cells; experiment: Mitochondrial membrane potential; format: cell-based, human; details: A431, flow cytometry, 1 µM
[8] = tested on: PC-3; experiment: SRB antiproliferative assay; format: cell-based; details: Homo sapiens, PC-3, 24 h, read-out: IC50 (SRB)
[9] = tested on: A431 cells; experiment: DCFH-DA ROS assay; format: cell-based, human; details: A431, flow cytometry, 1 µM
[10] = tested on: MDA-MB-231; experiment: MTT antiproliferative assay; format: cell-based; details: Homo sapiens, MDA-MB-231, 24 h, read-out: IC50 (MTT)
[11] = tested on: PC-3; experiment: NRU antiproliferative assay; format: cell-based; details: Homo sapiens, PC-3, 24 h, read-out: IC50 (NRU)
[12] = tested on: MDA-MB-231; experiment: NRU antiproliferative assay; format: cell-based; details: Homo sapiens, MDA-MB-231, 24 h, read-out: IC50 (NRU)
[13] = tested on: A431; experiment: NRU antiproliferative assay; format: cell-based; details: Homo sapiens, A-431, 24 h, read-out: IC50 (NRU)
[14] = tested on: A431; experiment: SRB antiproliferative assay; format: cell-based; details: Homo sapiens, A-431, 24 h, read-out: IC50 (SRB)
[15] = tested on: DHFR mRNA; experiment: Real-time qPCR expression analysis; format: cell-based, human; details: GAPDH internal control
[16] = tested on: FaDu; experiment: NRU antiproliferative assay; format: cell-based; details: Homo sapiens, 24 h, read-out: IC50 (NRU)
[17] = biological target: tubulin protein (Sus scrofa, UniProt P02550+P02554); experiment: Tubulin polymerization assay; format: biochemical; details: 10 μM
Sequence of tubulin protein (P02550 whole entry): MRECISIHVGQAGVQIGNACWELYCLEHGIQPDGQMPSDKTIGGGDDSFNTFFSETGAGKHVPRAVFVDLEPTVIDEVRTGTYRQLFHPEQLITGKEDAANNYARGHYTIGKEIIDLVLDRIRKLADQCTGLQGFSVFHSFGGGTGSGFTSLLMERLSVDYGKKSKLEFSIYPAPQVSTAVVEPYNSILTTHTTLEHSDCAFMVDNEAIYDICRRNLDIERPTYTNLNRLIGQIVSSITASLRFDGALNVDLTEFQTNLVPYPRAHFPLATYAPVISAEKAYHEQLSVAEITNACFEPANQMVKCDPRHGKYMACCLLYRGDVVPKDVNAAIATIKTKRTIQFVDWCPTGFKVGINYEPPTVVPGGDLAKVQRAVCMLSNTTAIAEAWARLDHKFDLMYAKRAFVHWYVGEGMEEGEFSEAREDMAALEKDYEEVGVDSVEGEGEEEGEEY
Sequence of tubulin protein (P02554 whole entry): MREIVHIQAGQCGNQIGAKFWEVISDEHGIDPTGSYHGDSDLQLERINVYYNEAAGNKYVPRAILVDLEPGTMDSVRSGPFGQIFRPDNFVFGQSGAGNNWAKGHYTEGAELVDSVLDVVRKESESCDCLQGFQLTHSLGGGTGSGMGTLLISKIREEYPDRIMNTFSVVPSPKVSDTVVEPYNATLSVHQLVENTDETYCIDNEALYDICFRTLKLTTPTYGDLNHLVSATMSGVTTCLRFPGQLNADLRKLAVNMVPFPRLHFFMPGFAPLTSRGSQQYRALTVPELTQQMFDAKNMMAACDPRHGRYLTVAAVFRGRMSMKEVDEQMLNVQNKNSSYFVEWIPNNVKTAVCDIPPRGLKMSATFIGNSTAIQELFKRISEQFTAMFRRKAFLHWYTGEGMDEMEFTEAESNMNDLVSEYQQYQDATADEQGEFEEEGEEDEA

[18] = tested on: FaDu; experiment: SRB antiproliferative assay; format: cell-based; details: Homo sapiens, 24 h, read-out: IC50 (SRB)
[19] = tested on: FaDu; experiment: MTT antiproliferative assay; format: cell-based; details: Homo sapiens, 24 h, read-out: IC50 (MTT)
[20] = tested on: K562; experiment: MTT antiproliferative assay; format: cell-based; details: Homo sapiens, K562, 24 h, read-out: IC50 (MTT)
[21] = tested on: K562; experiment: SRB antiproliferative assay; format: cell-based; details: Homo sapiens, K562, 24 h, read-out: IC50 (SRB)
[22] = tested on: K562; experiment: NRU antiproliferative assay; format: cell-based; details: Homo sapiens, K562, 24 h, read-out: IC50 (NRU)
[23] = tested on: CAT D mRNA; experiment: Real-time qPCR expression analysis; format: cell-based, human; details: GAPDH internal control
[24] = tested on: Ehrlich Ascites Carcinoma (EAC); experiment: Ehrlich ascites carcinoma; format: in vivo, Swiss albino mice; details: 20 mg/kg bw i.p., day 1-9
[25] = tested on: Ornithine decarboxylase (ODC); experiment: ODC assay, cell-free; format: biochemical; details: read-out: IC50 ODC; cell free (In vitro)
[26] = tested on: ODC mRNA; experiment: Real-time qPCR expression analysis; format: cell-based, human; details: GAPDH internal control
[27] = tested on: LOX-5 mRNA; experiment: Real-time qPCR expression analysis; format: cell-based, human; details: GAPDH internal control
[28] = tested on: A549; experiment: MTT antiproliferative assay; format: cell-based; details: Homo sapiens, A549, 24 h, read-out: IC50 (MTT)
[29] = tested on: A549; experiment: NRU antiproliferative assay; format: cell-based; details: Homo sapiens, A549, 24 h, read-out: IC50 (NRU)
[30] = tested on: A549; experiment: SRB antiproliferative assay; format: cell-based; details: Homo sapiens, A549, 24 h, read-out: IC50 (SRB)
[31] = MDA-MB-231, with respect to control

- IC50 [2]: 5.92 ± 0.7 µM
- IC50 ([3]; read-out: IC50 HYAL, A431): 8.2 ± 1.42 µM
- IC50 ([3]; read-out: IC50 HYAL, A549): 13.7 ± 4.37 µM
- IC50 ([3]; read-out: IC50 HYAL, FaDu): 7.44 ± 0.67 µM
- IC50 ([3]; read-out: IC50 HYAL, K562): 7.56 ± 0.59 µM
- IC50 ([3]; read-out: IC50 HYAL, MDA-MB-231): 14.6 ± 3.07 µM
- IC50 ([3]; read-out: IC50 HYAL, PC-3): 9.44 ± 3.13 µM
Compound: CC(=O)N[C@@H](CS)C(=O)O [NAC, N-acetyl cysteine]
- HYAL mRNA expression level ([1]; A431, with respect to control): 4.50 fold change
- HYAL mRNA expression level ([1]; A549, with respect to control): 4.09 fold change
- HYAL mRNA expression level ([1]; FaDu, with respect to control): 6.66 fold change
- HYAL mRNA expression level ([1]; K562, with respect to control): 8.98 fold change
- HYAL mRNA expression level [1, 31]: 6.87 fold change
- HYAL mRNA expression level ([1]; PC-3, with respect to control): 5.64 fold change

- IC50 [4]: 1.51 ± 0.86 µM
- IC50 [5]: 2.24 ± 1.56 µM
- IC50 [6]: 1.6 ± 0.09 µM
- IC50 [8]: 3 ± 1.16 µM
- IC50 [10]: 1.55 ± 0.95 µM
- IC50 [11]: 1.2 ± 0.36 µM
- IC50 [12]: 3.64 ± 1.8 µM
- IC50 [13]: 1.15 ± 0.37 µM
- IC50 [14]: 1.21 ± 0.03 µM
Compound: COc1cccc2c1C(=O)c1c(O)c3c(c(O)c1C2=O)C[C@@](O)(C(=O)CO)C[C@@H]3O[C@H]1C[C@H](N)[C@H](O)[C@H](C)O1 [Doxorubicin, reference compound]
- total of FITC mean (Rh123) [7]: 2735 ± 5.65
- total mean of DCF positive cells [9]: 370 ± 14.14

Compound: CN(Cc1cnc2nc(N)nc(N)c2n1)c1ccc(C(=O)N[C@@H](CCC(=O)O)C(=O)O)cc1 [MTX, Methotrexate]
- DHFR mRNA expression level ([15]; A431, with respect to control): 2.92 fold change
- DHFR mRNA expression level ([15]; A549, with respect to control): 2.20 fold change
- DHFR mRNA expression level ([15]; FaDu, with respect to control): 2.82 fold change
- DHFR mRNA expression level ([15]; K562, with respect to control): 2.20 fold change
- DHFR mRNA expression level [15, 31]: 2.59 fold change
- DHFR mRNA expression level ([15]; PC-3, with respect to control): 2.0 fold change

Compound: COc1cc([C@@H]2c3cc4c(cc3[C@H](O)[C@H]3COC(=O)[C@H]23)OCO4)cc(OC)c1OC [Podophyllotoxin]
- IC50 [16]: 25.3 ± 0.28 µM
- effect on tubulin polymerization [17]: inhibit the polymerization of α and β tubulin
- IC50 [18]: 34.1 ± 1.79 µM
- IC50 [19]: 16.2 ± 1.04 µM
- IC50 [20]: 46.4 ± 4.27 µM
- IC50 [21]: 50.26 ± 0.45 µM
- IC50 [22]: 32.3 ± 3.11 µM

Compound: CC(C)CC(=O)N[C@H](C(=O)N[C@H](C(=O)N[C@@H](CC(C)C)[C@@H](O)CC(=O)N[C@@H](C)C(=O)N[C@@H](CC(C)C)[C@@H](O)CC(=O)O)C(C)C)C(C)C [PEP A, pepstatin A, reference compound] (Isovaleryl-VV[Sta]A[Sta]-OH)
- CAT D mRNA expression level ([23]; A431, with respect to control): 1.61 fold change
- CAT D mRNA expression level ([23]; A549, with respect to control): 2.77 fold change
- CAT D mRNA expression level ([23]; FaDu, with respect to control): 2.22 fold change
- CAT D mRNA expression level ([23]; K562, with respect to control): 3.12 fold change
- CAT D mRNA expression level [23, 31]: 1.81 fold change
- CAT D mRNA expression level ([23]; PC-3, with respect to control): 1.66 fold change

Compound: O=c1[nH]cc(F)c(=O)[nH]1 [5-fluorouracil, reference compound]
- reduction of EAC tumor formation (tumor growth inhibition) [24]: 98.39%

- IC50 [25]: 7.54 ± 5.8 µM
Compound: NCCC[C@](N)(C(=O)O)C(F)F [DFMO, α-difluoromethylornithine]
- ODC mRNA expression level ([26]; A431, with respect to control): 5.42 fold change
- ODC mRNA expression level ([26]; A549, with respect to control): 4.24 fold change
- ODC mRNA expression level ([26]; FaDu, with respect to control): 2.57 fold change
- ODC mRNA expression level ([26]; K562, with respect to control): 4.07 fold change
- ODC mRNA expression level [26, 31]: 3.67 fold change
- ODC mRNA expression level ([26]; PC-3, with respect to control): 6.55 fold change

Compound: CC(c1cc2ccccc2s1)N(O)C(N)=O (stereo not drawn) [Zileuton]
- LOX-5 mRNA expression level ([27]; A431, with respect to control): 3.10 fold change
- LOX-5 mRNA expression level ([27]; FaDu, with respect to control): 2.96 fold change
- LOX-5 mRNA expression level ([27]; K562, with respect to control): 3.01 fold change
- LOX-5 mRNA expression level [27, 31]: 3.09 fold change
- LOX-5 mRNA expression level ([27]; PC-3, with respect to control): 2.22 fold change

- IC50 [28]: 2.1 ± 0.81 µM
- effect on tubulin polymerization [17]: stabilizes the tubulin polymerization
- IC50 [29]: 1.18 ± 0.13 µM
- IC50 [30]: 1.15 ± 0.16 µM
Compound: CC(=O)O[C@H]1C(=O)[C@@]2(C)[C@H]([C@H](OC(=O)c3ccccc3)[C@]3(O)C[C@H](OC(=O)[C@H](O)[C@@H](NC(=O)c4ccccc4)c4ccccc4)C(C)=C1C3(C)C)[C@]1(OC(C)=O)CO[C@@H]1C[C@@H]2O [Taxol, paclitaxel]
